Experimental data as given in patent US20060106048A1, “Furoisoquinoline derivative and use thereof” (priority 2002, published 2006).
Where a name gives a salt, the structure may show the parent alone.

Molecular target: T1, recombinant human brain-derived phosphodiesterase 4D3 (Homo sapiens, UniProt Q08499)
T1 construct: GST; made in house; host or cells: Escherichia coli BL21/pPDE4D3 (FERM BP-7075)
Experiment: Assay of phosphodiesterase IV-inhibiting action (SPA, [3H]cAMP)
Type: biochemical
Settings: recombinant human brain-derived phosphodiesterase 4D3, [3H]cAMP, 30 minutes at 30° C.; activity without compound = 100%; read-out: Phosphodiesterase 4D inhibiting action (IC50)
Source text: Assay of Phosphodiesterase IV-Inhibiting Action
(1) Expression of Recombinant Human Brain-Derived Phosphodiesterase 4D3 in Escherichia coli and Purification Thereof.
Using the Escherichia coli BL21/pPDE4D3 (FERM BP-7075) producing recombinant human brain-derived phosphodiesterase 4D3, a recombinant human brain-derived phosphodiesterase 4D3 was obtained. The expression and purification of E. coli were in accordance with the protocol attached to GST Gene Fusion System (Pharmacia).
(2) Assay of Phosphodiesterase IV-Inhibiting Action
To a 96-well plate (OPTI plate, Packard), 10 μl of a buffer solution [0.5 M Tris-HCl (pH 7.5), 83 mM MgCl2, 17 mM EGTA], 10 μl of the recombinant human brain-derived phosphodiesterase 4D3 (0.0034 mg/ml) obtained in Section (1) described above, 65 μl of Ultrapure water, 5 μl of an inhibitor sample and 10 μl of [^3H] cAMP were added and reacted for 30 minutes at 30° C. After completing the reaction, 50 μl of SPA beads solution [18 mg/ml Yttrium silicate beads, 18 mM ZnSO4] was added thereto, and the mixture was allowed to stand at room temperature for about 20 minutes. The radioactivity was counted using a scintillation counter (Topcount, Packard). Inhibiting activity of the compound against recombinant human brain-derived phosphodiesterase 4D3 was calculated, based on that enzymatic activity under absence of the compound was 100%.

T1 sequence (Q08499 1-673 isoform Q08499-2): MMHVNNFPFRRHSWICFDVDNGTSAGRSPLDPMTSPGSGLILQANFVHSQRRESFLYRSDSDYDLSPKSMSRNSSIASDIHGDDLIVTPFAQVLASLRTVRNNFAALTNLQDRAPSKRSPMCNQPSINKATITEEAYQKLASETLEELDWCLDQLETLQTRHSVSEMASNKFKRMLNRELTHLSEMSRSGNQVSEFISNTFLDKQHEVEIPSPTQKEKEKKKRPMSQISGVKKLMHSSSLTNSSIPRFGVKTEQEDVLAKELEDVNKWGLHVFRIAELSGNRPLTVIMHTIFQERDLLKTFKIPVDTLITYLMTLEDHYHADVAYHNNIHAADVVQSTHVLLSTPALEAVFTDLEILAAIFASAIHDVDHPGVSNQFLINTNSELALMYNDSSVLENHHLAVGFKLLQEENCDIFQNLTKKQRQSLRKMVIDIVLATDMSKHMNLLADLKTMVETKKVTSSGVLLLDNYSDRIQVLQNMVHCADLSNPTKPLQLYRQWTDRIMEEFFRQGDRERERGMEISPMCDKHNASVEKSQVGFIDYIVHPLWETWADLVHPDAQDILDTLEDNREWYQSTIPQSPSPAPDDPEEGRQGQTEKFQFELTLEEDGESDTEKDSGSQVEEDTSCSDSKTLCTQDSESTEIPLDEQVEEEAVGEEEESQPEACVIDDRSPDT

Going from `CCOc1cc2c(c3c1OC(C)(C)C3)C(c1ccc(C(=O)OC)c(NC(C)=O)c1)=NC(C)(C)C2` [Example 17, Methyl 2-(acetylamino)-4-(6-ethoxy-3,4,8,9-tetrahydro-3,3,8,8-tetramethylfuro[2,3-h]isoquinolin-1-yl)benzoate] to `CCOc1cc2c(c3c1OC(C)(C)C3)C(c1ccc(C(=O)OC)c(NC(=O)c3ccccn3)c1)=NC(C)(C)C2` [Example 21, Methyl 4-(6-ethoxy-3,4,8,9-tetrahydro-3,3,8,8-tetramethylfuro[2,3-]isoquinolin-1-yl)-2-[(2-pyridinylcarbonyl)amino]benzoate], the IC50 falls from 4.01 nM to 1.89 nM (2.1-fold). The second is the more potent here.

First: CCOc1cc2c(c3c1OC(C)(C)C3)C(c1ccc(C(=O)O)c(NCc3ccccc3)c1)=NC(C)(C)C2 [Example 6, 4-(6-Ethoxy-3,4,8,9-tetrahydro-3,3,8,8-tetramethylfuro[2,3-h]isoquinolin-1-yl)-2-[(phenylmethyl)amino]benzoic acid]
Second: CCOc1cc2c(c3c1OC(C)(C)C3)C(c1ccc(C#N)c(NCc3ccccc3)c1)=NC(C)(C)C2 [Example 74, 4-(6-Ethoxy-3,4,8,9-tetrahydro-3,3,8,8-tetramethylfuro[2,3-h]isoquinolin-1-yl)-2-[(phenylmethyl)amino]benzonitrile]
The IC50 of the first is 3-fold lower: 0.566 nM for the first, 1.71 nM for the second. The first is the more potent here.

Going from `CCOc1cc2c(c3c1OC(C)(C)C3)C(c1ccc(COCC(=O)O)cc1)=NC(C)(C)C2` [Example 95, [[4-(6-Ethoxy-3,4,8,9-tetrahydro-3,3,8,8-tetramethylfuro[2,3-h]isoquinolin-1-yl)phenyl]methoxy]acetic acid hydrochloride] to `CCOc1cc2c(c3c1OC(C)(C)C3)C(c1ccc(COCC(=O)OC)cc1)=NC(C)(C)C2` [Example 94, Methyl [[4-(6-ethoxy-3,4,8,9-tetrahydro-3,3,8,8-tetramethylfuro[2,3-h]isoquinolin-1-yl)phenyl]methoxy]acetate hydrochloride], the IC50 falls from 10.9 nM to 3.27 nM (3.3-fold). The second is the more potent here.

Going from `CCOc1cc2c(c3c1OC(C)(C)C3)C(c1ccc(C(=O)NC)c(NC(=O)c3ccccc3)c1)=NC(C)(C)C2` [Example 57, 2-(Benzoylamino)-4-(6-ethoxy-3,4,8,9-tetrahydro-3,3,8,8-tetramethylfuro[2,3-h]isoquinolin-1-yl)-N-methylbenzamide] to `CCOc1cc2c(c3c1OC(C)(C)C3)C(c1ccc(C(N)=O)c(NC(=O)c3ccccn3)c1)=NC(C)(C)C2` [Example 23, N-[2-(Aminocarbonyl)-5-(6-ethoxy-3,4,8,9-tetrahydro-3,3,8,8-tetramethylfuro[2,3-h]isoquinolin-1-yl)phenyl]-2-pyridinecarboxamide], the IC50 falls from 1.63 nM to 0.756 nM (2.2-fold).

`CCOc1cc2c(c3c1OC(C)(C)C3)C(c1ccc(CC(=O)O)c(NC(=O)c3ccccn3)c1)=NC(C)(C)C2` [Example 124, 4-(6-Ethoxy-3,4,8,9-tetrahydro-3,3,8,8-tetramethylfuro[2,3-h]isoquinolin-1-yl)-2-[(2-pyridinylcarbonyl)amino]benzeneacetic acid] and `CCOc1cc2c(c3c1OC(C)(C)C3)C(c1ccc(C(=O)O)c(NC(=O)c3ccc4ccccc4n3)c1)=NC(C)(C)C2` [Example 30, 4-(6-Ethoxy-3,4,8,9-tetrahydro-3,3,8,8-tetramethylfuro[2,3-h]isoquinolin-1-yl)-2-[(2-quinolinylcarbonyl)amino]benzoic acid] are within 1.5-fold of each other in IC50: 0.637 nM for the first, 0.761 nM for the second.

First: CCOc1cc2c(c3c1OC(C)(C)C3)C(c1ccc(C(C)(C)C(N)=O)cc1)=NC(C)(C)C2 [Example 120, 4-(6-Ethoxy-3,4,8,9-tetrahydro-3,3,8,8-tetramethylfuro[2,3-h]isoquinolin-1-yl)-α,α-dimethylbenzeneacetamide]
Second: CCOc1cc2c(c3c1OC(C)(C)C3)C(c1ccc(C(C)(C)C(=O)O)cc1)=NC(C)(C)C2 [Example 118, 4-(6-Ethoxy-3,4,8,9-tetrahydro-3,3,8,8-tetramethylfuro[2,3-h]isoquinolin-1-yl)-α,α-dimethylbenzeneacetic acid hydrochloride hydrate]
The IC50 of the first is 3.3-fold lower: 3.5 nM for the first, 11.5 nM for the second.

First: CCOc1cc2c(c3c1OC(C)(C)C3)C(c1ccc(/C=C/C(=O)O)c(OC)c1)=NC(C)(C)C2 [Example 85, (E)-3-[4-(6-Ethoxy-3,4,8,9-tetrahydro-3,3,8,8-tetramethylfuro[2,3-h]isoquinolin-1-yl)-2-methoxyphenyl]-2-propenoic acid]
Second: CCNc1cc(C2=NC(C)(C)Cc3cc(OCC)c4c(c32)CC(C)(C)O4)ccc1C(=O)O [Example 50, 4-(6-Ethoxy-3,4,8,9-tetrahydro-3,3,8,8-tetramethylfuro[2,3-h]isoquinolin-1-yl)-2-(ethylamino)benzoic acid]
The IC50 of the first is 1.5-fold lower: 5.5 nM for the first, 8.4 nM for the second. The first is the more potent here.
